Where two headings read alike, the source gives them in different places.
Molecular target: human APJ receptor (Homo sapiens (Human), UniProt P35414)
Assay: Intracellular cAMP accumulation assay (APJ hcAMP, HTRF)
Assay type: cell-based
Conditions: HEK293 cells stably expressing human APJ receptor, inhibition of forskolin-mediated cAMP production
Method in brief: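 HEK293 cells stably expressing human APJ, 5,000 per well, exposed to compound with […] IBMX and 2 μM forskolin for 30 minutes at room temperature. cAMP measured by HTRF after lysis and 60 min detection incubation. EC50 from sigmoidal variable-slope fits of inhibition of forskolin-induced cAMP, quantified against a cAMP standard curve.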

[1] = read-out: hAPJ cAMP EC50 (nM) Potency range
[2] = read-out: hAPJ cAMP EC50 Potency range
[3] = read-out: Human APJ cAMP EC50 Potency range

Sequence of human APJ receptor (P35414 whole entry): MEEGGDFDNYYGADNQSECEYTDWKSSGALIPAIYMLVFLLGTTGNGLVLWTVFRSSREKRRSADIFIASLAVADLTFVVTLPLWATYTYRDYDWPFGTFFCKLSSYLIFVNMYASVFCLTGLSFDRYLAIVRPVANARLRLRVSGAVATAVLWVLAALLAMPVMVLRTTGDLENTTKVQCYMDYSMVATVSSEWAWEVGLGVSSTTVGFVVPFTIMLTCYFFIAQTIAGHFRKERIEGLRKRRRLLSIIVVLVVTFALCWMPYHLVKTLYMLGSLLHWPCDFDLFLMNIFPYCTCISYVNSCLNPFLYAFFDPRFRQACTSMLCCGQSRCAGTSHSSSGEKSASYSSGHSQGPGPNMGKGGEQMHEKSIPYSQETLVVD

Structure (SMILES) | EC50 [2] | other results
CCCCc1nc(O)c(-c2nnc(CC(=O)NCc3cccc(Cl)c3)o2)c(O)c1-c1c(OC)cccc1OC [Example 259, 2-{5-[6-butyl-5-(2,6-dimethoxyphenyl)-2,4-dihydroxy-pyridin-3-yl]-1,3,4-oxadiazol-2-yl}-N-[(3-chlorophenyl)methyl]acetamide] | – | EC50 [1]: 0.01 to 10 nM
CCCCc1nc(O)c(-c2nnc(Cc3ccc(F)c(Cl)c3)o2)c(O)c1-c1c(OC)cccc1OC [Example 70, 6-butyl-3-{5-[(3-chloro-4-fluorophenyl)methyl]-1,3,4-oxadiazol-2-yl}-5-(2,6-dimethoxyphenyl) pyridine-2,4-diol] | 0.01 to 10 nM | –
CCCCc1nc(O)c(-c2nnc(Cc3csc(-c4ccc(Cl)cc4)n3)o2)c(O)c1-c1c(OC)cccc1OC [Example 39, 6-butyl-3-(5-{[2-(4-chlorophenyl)-1,3-thiazol-4-yl]methyl}-1,3,4-oxadiazol-2-yl)-5-(2,6-dimethoxyphenyl) pyridine-2,4-diol] | 10 to 100 nM | –
CCOCc1nc(O)c(-c2nnc(Cn3ccnc3)o2)c(O)c1-c1c(OC)cccc1OC [Example 125, 5-(2,6-dimethoxyphenyl)-6-(ethoxymethyl)-3-[5-(1H-imidazol-1-ylmethyl)-1,3,4-oxadiazol-2-yl]pyridine-2,4-diol] | 10 to 100 nM | –
CCCCc1nc(O)c(-c2nnc(Cc3nnn(C)n3)o2)c(O)c1-c1c(OC)cccc1OC [Example 63, 6-butyl-5-(2,6-dimethoxyphenyl)-3-{5-[(2-methyl-2H-1,2,3,4-tetrazol-5-yl)methyl]-1,3,4-oxadiazol-2-yl}pyridine-2,4-diol] | 0.01 to 10 nM | –
CCCCc1nc(O)c(-c2nnc(CC3CCOCC3)o2)c(O)c1-c1c(OC)cccc1OC [Example 69, 6-butyl-5-(2,6-dimethoxyphenyl)-3-[5-(oxan-4-ylmethyl)-1,3,4-oxadiazol-2-yl]pyridine-2,4-diol] | 10 to 100 nM | –
CCCCc1nc(O)c(-c2nnc(Cc3noc4ccccc34)o2)c(O)c1-c1c(C)cccc1C [Example 224, 3-[5-(1,2-benzoxazol-3-ylmethyl)-1,3,4-oxadiazol-2-yl]-6-butyl-5-(2,6-dimethylphenyl)pyridine-2,4-diol] | – | EC50 [3]: 0.01 to 10 nM
COCCOCc1nc(O)c(-c2nnc(Cc3ccc(Cl)cn3)o2)c(O)c1-c1c(OC)cccc1OC [Example 240, 3-{5-[(5-chloropyridin-2-yl)methyl]-1,3,4-oxadiazol-2-yl}-5-(2,6-dimethoxyphenyl)-6-[(2-methoxyethoxy)methyl] pyridine-2,4-diol] | – | EC50 [1]: 0.01 to 10 nM
CCOCc1nc(O)c(-c2nnc(Cn3ccc4ccccc43)o2)c(O)c1-c1c(OC)cccc1OC [Example 136, 5-(2,6-dimethoxyphenyl)-6-(ethoxymethyl)-3-[5-(1H-indol-1-ylmethyl)-1,3,4-oxadiazol-2-yl]pyridine-2,4-diol] | 10 to 100 nM | –
CCCCc1nc(O)c(-c2nnc(Cc3noc4ccccc34)o2)c(O)c1-c1c(Cl)cccc1Cl [Example 86, 3-[5-(1,2-benzoxazol-3-ylmethyl)-1,3,4-oxadiazol-2-yl]-6-butyl-5-(2,6-dichlorophenyl) pyridine-2,4-diol] | 0.01 to 10 nM | –
CCCCc1nc(O)c(-c2nnc(Cc3nc(-c4cccnc4)no3)o2)c(O)c1-c1c(OC)cccc1OC [Example 101, 6-butyl-5-(2,6-dimethoxyphenyl)-3-(5-{[3-(pyridin-3-yl)-1,2,4-oxadiazol-5-yl]methyl}-1,3,4-oxadiazol-2-yl)pyridine-2,4-diol] | 0.01 to 10 nM | –
CCCCc1nc(O)c(-c2nnc(Cc3ccc(OC(F)(F)F)cc3)o2)c(O)c1-c1c(OC)cccc1OC [Example 56, 6-butyl-5-(2,6-dimethoxyphenyl)-3-(5-{[4-(trifluoromethoxy)phenyl]methyl}-1,3,4-oxadiazol-2-yl)pyridine-2,4-diol] | 0.01 to 10 nM | –
CCCCc1nc(O)c(-c2nnc(C(F)(F)c3ccccc3)o2)c(O)c1-c1c(OC)cccc1OC [Example 24, 6-butyl-3-{5-[difluoro(phenyl)methyl]-1,3,4-oxadiazol-2-yl}-5-(2,6-dimethoxyphenyl) pyridine-2,4-diol] | 10 to 100 nM | –
CCCCc1nc(O)c(-c2nnc(Cc3nc(-c4ccccn4)no3)o2)c(O)c1-c1c(OC)cccc1OC [Example 55, 6-butyl-5-(2,6-dimethoxyphenyl)-3-(5-{[3-(pyridin-2-yl)-1,2,4-oxadiazol-5-yl]methyl}-1,3,4-oxadiazol-2-yl)pyridine-2,4-diol] | 0.01 to 10 nM | –
CCCCc1nc(O)c(-c2nnc(Cc3ccc(C#N)cc3)o2)c(O)c1-c1c(OC)cccc1OC [Example 37, 4-({5-[6-butyl-5-(2,6-dimethoxyphenyl)-2,4-dihydroxypyridin-3-yl]-1,3,4-oxadiazol-2-yl}methyl) benzonitrile] | 0.01 to 10 nM | –
CCCCc1nc(O)c(-c2nnc(CC(=O)NCc3ccc(N(C)C)cc3)o2)c(O)c1-c1c(OC)cccc1OC [Example 270, 2-{5-[6-butyl-5-(2,6-dimethoxyphenyl)-2,4-dihydroxy-pyridin-3-yl]-1,3,4-oxadiazol-2-yl}-N-{[4-(dimethylamino)phenyl]methyl} acetamide] | – | EC50 [1]: 0.01 to 10 nM
CCCCc1nc(O)c(-c2nnc(Cc3nonc3C)o2)c(O)c1-c1c(OC)cccc1OC [Example 41, 6-butyl-5-(2,6-dimethoxyphenyl)-3-{5-[(4-methyl-1,2,5-oxadiazol-3-yl)methyl]-1,3,4-oxadiazol-2-yl}pyridine-2,4-diol] | 0.01 to 10 nM | –
CCCCc1nc(O)c(-c2nnc(CC(=O)NCc3ccc(S(N)(=O)=O)cc3)o2)c(O)c1-c1c(OC)cccc1OC [Example 273, 2-{5-[6-butyl-5-(2,6-dimethoxyphenyl)-2,4-dihydroxy-pyridin-3-yl]-1,3,4-oxadiazol-2-yl}-N-[(4-sulfamoylphenyl)methyl]acetamide] | – | EC50 [1]: 10 to 100 nM
CCCCc1nc(O)c(-c2nnc(CC(=O)NCc3nnc(C)o3)o2)c(O)c1-c1c(OC)cccc1OC [Example 271, 2-{5-[6-butyl-5-(2,6-dimethoxyphenyl)-2,4-dihydroxypyridin-3-yl]-1,3,4-oxadiazol-2-yl}-N-[(5-methyl-1,3,4-oxadiazol-2-yl)methyl]acetamide] | – | EC50 [1]: 0.01 to 10 nM
CCOCc1nc(O)c(-c2nnc(Cc3ccc(Cl)cc3F)o2)c(O)c1-c1c(OC)cccc1OC [Example 123, 3-{5-[(4-chloro-2-fluorophenyl)methyl]-1,3,4-oxadiazol-2-yl}-5-(2,6-dimethoxyphenyl)-6-(ethoxymethyl) pyridine-2,4-diol] | 0.01 to 10 nM | –
CCCCc1nc(O)c(-c2nnc(Cc3ccc(F)c(F)c3)o2)c(O)c1-c1cccc(CO)c1 [Example 143, 6-butyl-3-{5-[(3,4-difluorophenyl)methyl]-1,3,4-oxadiazol-2-yl}-5-[3-(hydroxymethyl)phenyl]pyridine-2,4-diol] | 0.01 to 10 nM | –
CCCCc1nc(O)c(-c2nnc(CNC)o2)c(O)c1-c1c(OC)cccc1OC [Example 154, 6-butyl-5-(2,6-dimethoxyphenyl)-3-{5-[(methylamino)methyl]-1,3,4-oxadiazol-2-yl}pyridine-2,4-diol] | – | EC50 [3]: 10 to 100 nM
CCCCc1nc(O)c(-c2nnc(CNC(=O)c3cccnc3)o2)c(O)c1-c1c(OC)cccc1OC [Example 160, N-({5-[6-butyl-5-(2,6-dimethoxyphenyl)-2,4-dihydroxypyridin-3-yl]-1,3,4-oxadiazol-2-yl}methyl)pyridine-3-carboxamide] | 0.01 to 10 nM | –

Further lines, with some results ahead:

EC50 [2] | Structure (SMILES) | other results
0.01 to 10 nM | CCCCc1nc(O)c(-c2nnc(CC(=O)Nc3nccs3)o2)c(O)c1-c1c(OC)cccc1OC [Example 201, 2-{5-[6-butyl-5-(2,6-dimethoxyphenyl)-2,4-dihydroxypyridin-3-yl]-1,3,4-oxadiazol-2-yl}-N-(1,3-thiazol-2-yl)acetamide] | –
0.01 to 10 nM | CCCCc1nc(O)c(-c2nnc(CNC(=O)c3ccccn3)o2)c(O)c1-c1c(OC)cccc1OC [Example 168, N-({5-[6-butyl-5-(2,6-dimethoxyphenyl)-2,4-dihydroxypyridin-3-yl]-1,3,4-oxadiazol-2-yl}methyl)pyridine-2-carboxamide] | –
10 to 100 nM | CCCCc1nc(O)c(-c2nnc(CC(=O)NCc3ccccn3)o2)c(O)c1-c1c(OC)cccc1OC [Example 178, 2-{5-[6-butyl-5-(2,6-dimethoxyphenyl)-2,4-dihydroxypyridin-3-yl]-1,3,4-oxadiazol-2-yl}-N-(pyridin-2-ylmethyl)acetamide] | –
0.01 to 10 nM | CCCCc1nc(O)c(-c2nnc(CC(=O)NCC(F)F)o2)c(O)c1-c1c(OC)cccc1OC [Example 191, 2-{5-[6-butyl-5-(2,6-dimethoxyphenyl)-2,4-dihydroxypyridin-3-yl]-1,3,4-oxadiazol-2-yl}-N-(2,2-difluoroethyl) acetamide] | –
10 to 100 nM | CCCCc1nc(O)c(-c2nnc(CNC(=O)C(F)(F)F)o2)c(O)c1-c1c(OC)cccc1OC [Example 176, N-({5-[6-butyl-5-(2,6-dimethoxyphenyl)-2,4-dihydroxypyridin-3-yl]-1,3,4-oxadiazol-2-yl}methyl)-2,2,2-trifluoroacetamide] | –
0.01 to 10 nM | CCCCc1nc(O)c(-c2nnc(Cc3noc4ccccc34)o2)c(O)c1-c1c(OC)ccc(F)c1OC (single isomer, unassigned; isomer 2) [Example 221, 3-[5-(1,2-benzoxazol-3-ylmethyl)-1,3,4-oxadiazol-2-yl]-6-butyl-5-(3-fluoro-2,6-dimethoxyphenyl) pyridine-2,4-diol (isomer 2)] | –
10 to 100 nM | CCCCc1nc(O)c(-c2nnc(Cc3noc4ccccc34)o2)c(O)c1-c1c(C)cc(C)cc1C [Example 225, 3-[5-(1,2-benzoxazol-3-ylmethyl)-1,3,4-oxadiazol-2-yl]-6-butyl-5-(2,4,6-trimethylphenyl) pyridine-2,4-diol] | –
0.01 to 10 nM | CCCCc1nc(O)c(-c2nnc(CNC(=O)c3ccncc3)o2)c(O)c1-c1c(OC)cccc1OC [Example 164, N-({5-[6-butyl-5-(2,6-dimethoxyphenyl)-2,4-dihydroxypyridin-3-yl]-1,3,4-oxadiazol-2-yl}methyl)pyridine-4-carboxamide] | –

— patent US10336739B2, “4-hydroxy-3-(heteroaryl)pyridine-2-one APJ agonists” (BRISTOL-MYERS SQUIBB COMPANY, priority 2015, dated 2019)
